Test results from US8202910B2 (Sequella, Inc., priority 2006, dated 2012).
In brackets after ≈: the same amount, converted by molar mass. Several values for one entry are separate records, joined by “and”; a condition that tells them apart may be missing. Equal entries are not always repeated.

Legend:
[1] = Metabolism by human liver microsomes; assay type: in vitro ADME; settings: after 40 min incubation
Source text: Two of the groups contained oxidized metabolites. […] Based on the finding that SQ109 was metabolized rapidly by CYP, it is possible that its antimycobacterial activity may come from one of its metabolites. It is conceivable that SQ109 is a prodrug and requires activation by mycobacterial CYP. We speculate that when SQ109 is used in combination with rifampicin, the latter induces certain CYP activity within the Mycobacteria. Elevated CYP activity activates the SQ109 prodrug more efficiently, resulting in an apparent synergistic activity of the two drugs.

dopamine receptor D2S = target: T1, dopamine receptor D2S (Homo sapiens, UniProt P14416); assay: CEREP receptor binding, D2S; settings: tested at 10 μM; read-out: inhibition of control specific binding
T1 construct: CEREP (contract testing)
Source text: (§1) In vitro testing for safety pharmacology and early ADMET (Absorption, Distribution, Metabolism, Excretion, Toxicity) studies of compound 109 were contracted out to CEREP (15318 NE 95th Street, Redmond, Wash., 98052, USA www.cerep.com) under a service agreement and included evaluation of inhibitory binding to a panel of 27 standard receptors and three transporters (See FIG. 60 (Table 31) and FIG. 61 (Table 32)) which included: adenosine receptors (A1 and A2A), adrenergic receptors (alpha 1, alpha 2, beta 1), angiotensin II receptor (AT1), benzodiazapene receptor (BZD), bradykinin receptor (B2), cholecystokinin receptor (CCK1), dopamine receptors (D1, D2S), endothelin receptor (ETA), GABA receptor (GABA), glutamate receptor (NMDA), histamine receptor (H1 central), melanocortin receptor (MC4), muscarinic receptor (M, non-selective), neurokinin receptor (NK1), neuropeptide Y receptor (Y), nicotinic receptor (neuronal, alpha-BGTX-insensitive), opiate receptor (non-selective opiate), orphanin receptor (ORL1), phencyclidine receptor (PCP), serotonin receptor (5-HT), sigma receptor (sigma non-selective), steroid receptor (glucocorticoid receptor, GR), and NE, DA, and 5-HT transporters.
(§2) The specific ligand binding to the receptors is defined as the difference between the total binding and the nonspecific binding determined in the presence of an excess of unlabelled ligand.

[2] = Maximum tolerated dose, one-time gavage dose in mice; assay type: in vivo
Experimental: […] Each dose of each compound consisted of one group of 3 mice. Monitoring of the mice was done twice a day for the duration of the experiment. […] The MTD (mg/kg) is the highest dose that results in no lethality/tissue abnormality.
• 1. […] The compounds are dissolved in the appropriate concentration of ethanol in distilled water and administered in a volume of 0.2 ml per mouse. • 2. Observation of mice: Mice will be observed 4 and 6 hours post administration, then twice daily for one week. Survival and body weight of mice will be closely monitored throughout the study. • 3. […] Critical organs will be aseptically removed and observed; tissues from the liver, heart, and kidneys are extracted and placed into 10% formalin solution. These fixed tissues are sectioned and examined for abnormalities resulting from drug toxicity.

M. avium complex (MAC) = assay: Spectrum of activity MIC, MOTT, agar proportion method; assay type: cell-based; settings: Mycobacterium avium; three isolates
[3] = target: T2, Norepinephrine NE transporter (Homo sapiens, UniProt P23975); assay: CEREP transporter binding, NE; settings: tested at 10 μM; read-out: inhibition of control specific binding
T2 construct: CEREP (contract testing)
Source text: as §1, §2

M. tuberculosis [MTB] = assay: Spectrum of activity MIC, BACTEC 460 TB system; assay type: cell-based; settings: Mycobacterium tuberculosis
[4] = tested on: opiate receptor (non-selective opiate); assay: CEREP receptor binding, opiate; settings: tested at 10 μM
Source text: as §1, §2

M. bovis BCG = assay: microbe, parasite or virus in culture; assay type: cell-based; settings: Mycobacterium tuberculosis variant bovis BCG
M. kansasii = assay: Spectrum of activity MIC, MOTT, agar proportion method; assay type: cell-based; settings: Mycobacterium kansasii; three tested
[5] = Toxicity, dose escalation study in mice; settings: C57BL/6, mouse, in vivo
Experimental: Toxicity was assessed using a dose escalation study. This study was performed with ten C57BL/6 mice per candidate. Every two days, the mice were administered an increased concentration of the drug, and monitored for detrimental effects. The administration scheme was 50, 100, 200, 400, 600, 800 and 1000 mg/kg.

M. bovis = assay: microbe, parasite or virus in culture; assay type: cell-based; settings: Mycobacterium tuberculosis variant bovis
[6] = tested on: RIF^R M. tuberculosis isolate 3185; assay: microbe, parasite or virus in culture; assay type: cell-based
M. marinum = assay: Spectrum of activity MIC, MOTT, agar proportion method; assay type: cell-based; settings: Mycobacterium marinum; three strains

T2 sequence (P23975 whole entry): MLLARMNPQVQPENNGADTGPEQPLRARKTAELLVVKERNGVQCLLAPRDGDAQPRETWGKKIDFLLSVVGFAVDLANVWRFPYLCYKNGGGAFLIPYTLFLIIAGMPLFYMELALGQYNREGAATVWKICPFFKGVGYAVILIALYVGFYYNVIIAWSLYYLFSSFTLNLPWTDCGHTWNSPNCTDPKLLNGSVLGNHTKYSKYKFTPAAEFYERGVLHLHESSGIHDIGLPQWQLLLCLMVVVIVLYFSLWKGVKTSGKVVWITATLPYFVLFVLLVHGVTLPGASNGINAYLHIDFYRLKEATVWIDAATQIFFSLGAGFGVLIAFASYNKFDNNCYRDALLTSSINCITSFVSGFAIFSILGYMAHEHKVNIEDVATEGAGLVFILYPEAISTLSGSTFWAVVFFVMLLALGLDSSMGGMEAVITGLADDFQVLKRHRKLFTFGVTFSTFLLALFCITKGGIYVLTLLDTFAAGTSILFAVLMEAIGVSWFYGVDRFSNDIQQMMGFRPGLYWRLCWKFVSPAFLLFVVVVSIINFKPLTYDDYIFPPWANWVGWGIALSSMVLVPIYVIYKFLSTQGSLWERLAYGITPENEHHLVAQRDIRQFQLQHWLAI
T1 sequence (P14416 1-414 isoform P14416-2): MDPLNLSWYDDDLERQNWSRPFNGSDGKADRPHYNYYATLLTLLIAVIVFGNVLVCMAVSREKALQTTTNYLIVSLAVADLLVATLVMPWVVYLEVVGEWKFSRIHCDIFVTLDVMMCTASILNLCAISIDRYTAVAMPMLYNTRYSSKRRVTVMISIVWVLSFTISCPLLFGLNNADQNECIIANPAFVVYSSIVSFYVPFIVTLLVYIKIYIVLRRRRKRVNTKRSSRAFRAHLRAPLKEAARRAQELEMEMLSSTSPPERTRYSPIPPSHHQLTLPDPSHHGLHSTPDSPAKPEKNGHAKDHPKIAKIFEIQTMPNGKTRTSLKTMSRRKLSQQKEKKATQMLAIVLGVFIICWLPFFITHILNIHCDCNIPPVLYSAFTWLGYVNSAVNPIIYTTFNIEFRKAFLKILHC

## CC(C)=CCC/C(C)=C/CNCCNC1C2CC3CC(C2)CC1C3 (stereo not drawn) [Compound 109, N-Geranyl-N′-(2-adamanthyl)ethane-1,2-diamine]
[1]
  SQ109 remaining: 8%
Dopamine receptor D2S
  inhibition at 10 µM: 73%
[2]; 109 as HCl salt at 800 mg/kg, day 1
  Mice: 3
[2]; 109 as HCl salt at 800 mg/kg, day 2
  Mice: 2/1
[2]; 109 as HCl salt at 800 mg/kg, day 3
  Mice: 1/1
[2]; 109 as HCl salt at 800 mg/kg, day 4
  Mice: 1
[2]; 109 as HCl salt at 800 mg/kg, day 5
  Mice: 1
[2]; 109 as HCl salt at 800 mg/kg, day 6
  Mice: 1
[2]; 109 as HCl salt at 800 mg/kg, day 7
  Mice: 1
[2]; 109 as HCl salt at 800 mg/kg, 800 mg/kg
  Day of death: 2 and 3
[2]; 109 as TFA salt at 800 mg/kg, day 1
  Mice: 1
[2]; 109 as TFA salt at 800 mg/kg, day 2
  Mice: 1
[2]; 109 as TFA salt at 800 mg/kg, day 3
  Mice: 1
[2]; 109 as TFA salt at 800 mg/kg, day 4
  Mice: 1
[2]; 109 as TFA salt at 800 mg/kg, day 5
  Mice: 1
[2]; 109 as TFA salt at 800 mg/kg, day 6
  Mice: 1
[2]; 109 as TFA salt at 800 mg/kg, day 7
  Mice: 1
[2]; 109 at 100 mg/kg, day 1
  Mice: 3
[2]; 109 at 100 mg/kg, day 2
  Mice: 3
[2]; 109 at 100 mg/kg, day 3
  Mice: 3
[2]; 109 at 100 mg/kg, day 4
  Mice: 3
[2]; 109 at 100 mg/kg, day 6
  Mice: 3
[2]; 109 at 100 mg/kg, day 7
  Mice: 3
[2]; 109 at 300 mg/kg, day 1
  Mice: 3
[2]; 109 at 300 mg/kg, day 2
  Mice: 3
[2]; 109 at 300 mg/kg, day 3
  Mice: 3
[2]; 109 at 300 mg/kg, day 4
  Mice: 3
[2]; 109 at 300 mg/kg, day 6
  Mice: 3
[2]; 109 at 300 mg/kg, day 7
  Mice: 3
[2]; 109 at 600 mg/kg, day 1
  Mice: 3
[2]; 109 at 600 mg/kg, day 2
  Mice: 3
[2]; 109 at 600 mg/kg, day 3
  Mice: 3
[2]; 109 at 600 mg/kg, day 4
  Mice: 3
[2]; 109 at 600 mg/kg, day 6
  Mice: 3
[2]; 109 at 600 mg/kg, day 7
  Mice: 3
[2]; 109 at 1000 mg/kg, day 1
  Mice: 3
[2]; 109 at 1000 mg/kg, day 2
  Mice: 2
[2]; 109 at 1000 mg/kg, day 3
  Mice: 2
[2]; 109 at 1000 mg/kg, day 4
  Mice: 1
[2]; 109 at 1000 mg/kg, day 6
  Mice: 0
[2]; female, C57BL/6, mouse, in vivo, po, one-time dose by gavage
  MTD at 1 week: 600 mg/kg
[2]; mice surviving one week
  changes in organs: No visible changes in organs
[2]; one-time dose, two of 3 mice died within 3 days
  fatal dose: 800 mg/kg
M. avium complex (MAC)
  MIC: 8 to 32 µg/mL (≈ 24.2 to 96.8 µM)
[3]
  inhibition at 10 µM: 87%
M. tuberculosis [MTB]
  MIC: 0.25 to 0.5 µg/mL (≈ 0.756 to 1.51 µM)
[4]
  inhibition of control specific binding: 58%
M. bovis BCG
  MIC: 0.5 µg/mL (≈ 1.51 µM)
M. kansasii
  MIC: 16 µg/mL (≈ 48.4 µM)
[5]
  tolerated dose: 800 mg/kg
M. bovis
  MIC: 0.25 µg/mL (≈ 0.756 µM)
[6]; Mycobacterium tuberculosis, read-out: MIC (BACTEC)
  MIC: 0.32 µg/mL (≈ 0.968 µM)
[6]; isolate 3185
  MIC (BACTEC): 0.32 µg/mL (≈ 0.968 µM)
M. marinum
  MIC: 8 µg/mL (≈ 24.2 µM)
